From publication PMC6778101 (Nature Communications, 2019)
“Also recorded” adds a separate entry of the source. Peptide text beside a SMILES is read from it.

Tests used:
A. baumannii ATCC 17978 = test: Laboratory evolution of resistance, MIC fold change of adapted lines; type: cell-based; conditions: Acinetobacter baumannii ATCC 17978; parallel line 1 of 10
Text: The tested pathogens initially sensitive to the AMPs and the antibiotics included Escherichia coli (ATCC® 25922™) (abbreviated as E. coli ATCC 25922), Salmonella enterica subsp. enterica serovar Typhimurium LT2 (abbreviated as S. enterica LT2), Klebsiella pneumoniae subsp. pneumoniae (Schroeter) Trevisan (ATCC® 10031™) (abbreviated as K. pneumoniae ATCC 10031) and Acinetobacter baumannii Bouvet and Grimont (ATCC® 17978™) (abbreviated as A. baumannii ATCC 17978).
The evolutionary protocol was designed to avoid population extinction and to ensure that populations with the highest level of resistance were propagated further. Starting with a subinhibitory drug concentration (Supplementary Data 8), resulting in ~50% growth inhibition, 10 parallel populations per drug were allowed to grow in Minimal Salts medium for 72 h and 300 r.p.m. E. coli K-12 BW25113 and E. coli mutD5 populations were incubated at 30 °C, while E. coli ATCC 25922, S. enterica LT2, K. pneumonia ATCC 10031, and A. baumannii ATCC 17978 were incubated at 37 °C. […] Prior to each transfer, cell growth was monitored by measuring the optical density at 600 nm (OD600 value, Biotek Synergy 2 microplate reader). Only populations with the highest drug concentration (and reaching OD600 > 0.2) were selected for further evolution. A chess-board layout was used on the plate to monitor potential cross-contamination events. […] E. coli mutD5 was adapted to TPII, also in 10 parallel evolving populations.
MICs were determined using a standard serial broth dilution technique. Briefly, 11-step serial dilutions were prepared in 96-well microtiter plates with three replicates per strain and antimicrobial compound. Each experiment was repeated at least twice. […] Cell growth was monitored by measuring the optical density (OD600 value, Biotek Synergy 2 microplate reader was used for this purpose). […] Relative MIC was calculated as follows: MICrelative = MICevolved/MICcontrol.

[1] = tested on: E. coli K-12 BW25113 carrying single mutations; test: MIC change in single-mutation strains (basS L194R, mlaD a342del, waaY M1†); type: cell-based, Escherichia coli
[2] = tested on: 38 AMP-adapted E. coli K-12 BW25113 lines; test: Cross-resistance of AMP-resistant lines (relative MIC); type: cell-based, Escherichia coli; conditions: for Relative MIC (MICevolved / MICcontrol): >1 cross-resistance, <1 collateral sensitivity
Text: Next, we have explored whether laboratory evolved AMP resistance provide any cross-resistance to AMPs which appear to be less prone to resistance. […] We have measured the changes in susceptibilities of these strains to the AMPs (PLEU, PGLA, R8, IND, TPII, and CP1) towards which resistance evolution was limited, as well as to the human peptide LL37. LL37 is a cathelicidin-derived AMP present throughout the human body with critical defensive roles. Cross-resistance was defined as a minimum of twofold increase in resistance level.
MICs were determined using a standard serial broth dilution technique. Briefly, 11-step serial dilutions were prepared in 96-well microtiter plates with three replicates per strain and antimicrobial compound. Each experiment was repeated at least twice. 5 × 10^5 cells/mL were inoculated into each well, and the plates were incubated at 30 °C in case of E. coli K-12 BW25113, and its antibiotic and AMP-adapted lines, or 37 °C in case of the other bacterial species. Plates were shaken at 300 r.p.m. during incubation for 24 and 18 h, respectively. Cell growth was monitored by measuring the optical density (OD600 value, Biotek Synergy 2 microplate reader was used for this purpose). […] Relative MIC was calculated as follows: MICrelative = MICevolved/MICcontrol.

CC[C@H](C)[C@@H]1NC(=O)CNC(=O)[C@H](CCCNC(=N)N)NC(=O)[C@H](Cc2ccc(O)cc2)NC(=O)[C@@H]2CSSC[C@H](NC1=O)C(=O)N[C@@H](Cc1ccc(O)cc1)C(=O)N[C@@H](CCCNC(=N)N)C(=O)N[C@@H](CCCCN)C(=O)N[C@H](C(=O)N[C@@H](CCCNC(=N)N)C(N)=O)CSSC[C@H](NC(=O)[C@H](Cc1c[nH]c3ccccc13)NC(=O)[C@@H](N)CCCNC(=N)N)C(=O)N[C@@H](Cc1ccccc1)C(=O)N[C@@H](CCCNC(=N)N)C(=O)N[C@@H](C(C)C)C(=O)N2 [TPII, tachyplesin II] (HELM PEPTIDE1{R.W.C.F.R.V.C.Y.R.G.I.C.Y.R.K.C.R.[am]}$PEPTIDE1,PEPTIDE1,3:R3-16:R3|PEPTIDE1,PEPTIDE1,7:R3-12:R3$$$V2.0; N-terminus and C-terminus assumed; bridges inferred)
MIC fold change following 20 transfers (A. baumannii ATCC 17978): 4.3 fold | resistance conferred by single mutations basS L194R, mlaD a342del, waaY M1† (in words) ([1]; mutations inserted individually into E. coli K-12 BW25113): no resistance | Relative MIC compared to the wild-type ([1]; strain with reinserted mutation basS L194R (CTG→CGG)): 1.0 | Relative MIC compared to the wild-type ([1]; strain with reinserted mutation mlaD a342del): 1.0 | Relative MIC compared to the wild-type ([1]; strain with reinserted mutation waaY M1† (ATG→CTG)): 1.0 | Fold change in minimum inhibitory concentration (MIC) ([2]; AMP-adapted line BAC5_3): 1 | Relative MIC (MICevolved / MICcontrol) ([2]; AMP-adapted line BAC5_3): 1 | Fold change in minimum inhibitory concentration (MIC) ([2]; AMP-adapted line BAC5_5): 1 | Relative MIC (MICevolved / MICcontrol) ([2]; AMP-adapted line BAC5_5): 1 | Fold change in minimum inhibitory concentration (MIC) ([2]; AMP-adapted line BAC5_7): 1.1 | Relative MIC (MICevolved / MICcontrol) ([2]; AMP-adapted line BAC5_7): 1.1 | Fold change in minimum inhibitory concentration (MIC) ([2]; AMP-adapted line BAC5_10): 1.1 | Relative MIC (MICevolved / MICcontrol) ([2]; AMP-adapted line BAC5_10): 1.1 | Fold change in minimum inhibitory concentration (MIC) ([2]; AMP-adapted line CAP18_2): 1.1 | Relative MIC (MICevolved / MICcontrol) ([2]; AMP-adapted line CAP18_2): 1.1 | Fold change in minimum inhibitory concentration (MIC) ([2]; AMP-adapted line CAP18_5): 1 | Relative MIC (MICevolved / MICcontrol) ([2]; AMP-adapted line CAP18_5): 1 | Fold change in minimum inhibitory concentration (MIC) ([2]; AMP-adapted line CAP18_6): 1 | Relative MIC (MICevolved / MICcontrol) ([2]; AMP-adapted line CAP18_6): 1 | Fold change in minimum inhibitory concentration (MIC) ([2]; AMP-adapted line CAP18_8): 1.1 | Relative MIC (MICevolved / MICcontrol) ([2]; AMP-adapted line CAP18_8): 1.1 | Fold change in minimum inhibitory concentration (MIC) ([2]; AMP-adapted line CAP18_10): 1 | Relative MIC (MICevolved / MICcontrol) ([2]; AMP-adapted line CAP18_10): 1 | Fold change in minimum inhibitory concentration (MIC) ([2]; AMP-adapted line HBD3_3): 1.2 | Relative MIC (MICevolved / MICcontrol) ([2]; AMP-adapted line HBD3_3): 1.2 | Fold change in minimum inhibitory concentration (MIC) ([2]; AMP-adapted line HBD3_6): 1.2 | Relative MIC (MICevolved / MICcontrol) ([2]; AMP-adapted line HBD3_6): 1.2 | Fold change in minimum inhibitory concentration (MIC) ([2]; AMP-adapted line HBD3_8): 1.2 | Relative MIC (MICevolved / MICcontrol) ([2]; AMP-adapted line HBD3_8): 1.2 | Fold change in minimum inhibitory concentration (MIC) ([2]; AMP-adapted line HBD3_10): 1.2 | Relative MIC (MICevolved / MICcontrol) ([2]; AMP-adapted line HBD3_10): 1.2 | Fold change in minimum inhibitory concentration (MIC) ([2]; AMP-adapted line LL37_1): 1.1 | Relative MIC (MICevolved / MICcontrol) ([2]; AMP-adapted line LL37_1): 1.1 | Fold change in minimum inhibitory concentration (MIC) ([2]; AMP-adapted line LL37_3): 1.1 | Relative MIC (MICevolved / MICcontrol) ([2]; AMP-adapted line LL37_3): 1.1 | Fold change in minimum inhibitory concentration (MIC) ([2]; AMP-adapted line LL37_6): 1 | Relative MIC (MICevolved / MICcontrol) ([2]; AMP-adapted line LL37_6): 1 | Fold change in minimum inhibitory concentration (MIC) ([2]; AMP-adapted line LL37_7): 1 | Relative MIC (MICevolved / MICcontrol) ([2]; AMP-adapted line LL37_7): 1 | Fold change in minimum inhibitory concentration (MIC) ([2]; AMP-adapted line LL37_10): 1 | Relative MIC (MICevolved / MICcontrol) ([2]; AMP-adapted line LL37_10): 1 | Fold change in minimum inhibitory concentration (MIC) ([2]; AMP-adapted line PEX_1): 1.1 | Relative MIC (MICevolved / MICcontrol) ([2]; AMP-adapted line PEX_1): 1.1 | Fold change in minimum inhibitory concentration (MIC) ([2]; AMP-adapted line PEX_4): 1.2 | Relative MIC (MICevolved / MICcontrol) ([2]; AMP-adapted line PEX_4): 1.2 | Fold change in minimum inhibitory concentration (MIC) ([2]; AMP-adapted line PEX_5): 1.1 | Relative MIC (MICevolved / MICcontrol) ([2]; AMP-adapted line PEX_5): 1.1 | Fold change in minimum inhibitory concentration (MIC) ([2]; AMP-adapted line PEX_6): 1 | Relative MIC (MICevolved / MICcontrol) ([2]; AMP-adapted line PEX_6): 1 | Fold change in minimum inhibitory concentration (MIC) ([2]; AMP-adapted line PEX_7): 1 | Relative MIC (MICevolved / MICcontrol) ([2]; AMP-adapted line PEX_7): 1 | Fold change in minimum inhibitory concentration (MIC) ([2]; AMP-adapted line PR39_1): 1 | Relative MIC (MICevolved / MICcontrol) ([2]; AMP-adapted line PR39_1): 1 | Fold change in minimum inhibitory concentration (MIC) ([2]; AMP-adapted line PR39_2): 0.9 | Relative MIC (MICevolved / MICcontrol) ([2]; AMP-adapted line PR39_2): 0.9 | Fold change in minimum inhibitory concentration (MIC) ([2]; AMP-adapted line PR39_5): 0.9 | Relative MIC (MICevolved / MICcontrol) ([2]; AMP-adapted line PR39_5): 0.9 | Fold change in minimum inhibitory concentration (MIC) ([2]; AMP-adapted line PR39_7): 0.9 | Relative MIC (MICevolved / MICcontrol) ([2]; AMP-adapted line PR39_7): 0.9 | Fold change in minimum inhibitory concentration (MIC) ([2]; AMP-adapted line PR39_10): 0.9 | Relative MIC (MICevolved / MICcontrol) ([2]; AMP-adapted line PR39_10): 0.9 | Fold change in minimum inhibitory concentration (MIC) ([2]; AMP-adapted line PROA_2): 1.1 | Relative MIC (MICevolved / MICcontrol) ([2]; AMP-adapted line PROA_2): 1.1 | Fold change in minimum inhibitory concentration (MIC) ([2]; AMP-adapted line PROA_3): 0.8 | Relative MIC (MICevolved / MICcontrol) ([2]; AMP-adapted line PROA_3): 0.8 | Fold change in minimum inhibitory concentration (MIC) ([2]; AMP-adapted line PROA_7): 1 | Relative MIC (MICevolved / MICcontrol) ([2]; AMP-adapted line PROA_7): 1 | Fold change in minimum inhibitory concentration (MIC) ([2]; AMP-adapted line PROA_8): 1 | Relative MIC (MICevolved / MICcontrol) ([2]; AMP-adapted line PROA_8): 1 | Fold change in minimum inhibitory concentration (MIC) ([2]; AMP-adapted line PROA_9): 1.1 | Relative MIC (MICevolved / MICcontrol) ([2]; AMP-adapted line PROA_9): 1.1 | Fold change in minimum inhibitory concentration (MIC) ([2]; AMP-adapted line PXB_2): 1.1 | Relative MIC (MICevolved / MICcontrol) ([2]; AMP-adapted line PXB_2): 1.1 | Fold change in minimum inhibitory concentration (MIC) ([2]; AMP-adapted line PXB_5): 1 | Relative MIC (MICevolved / MICcontrol) ([2]; AMP-adapted line PXB_5): 1 | Fold change in minimum inhibitory concentration (MIC) ([2]; AMP-adapted line PXB_6): 1.1 | Relative MIC (MICevolved / MICcontrol) ([2]; AMP-adapted line PXB_6): 1.1 | Fold change in minimum inhibitory concentration (MIC) ([2]; AMP-adapted line PXB_8): 1 | Relative MIC (MICevolved / MICcontrol) ([2]; AMP-adapted line PXB_8): 1 | Fold change in minimum inhibitory concentration (MIC) ([2]; AMP-adapted line PXB_10): 1.1 | Relative MIC (MICevolved / MICcontrol) ([2]; AMP-adapted line PXB_10): 1.1 | cross-resistance of the 38 AMP-resistant lines to the AMP (in words) ([2]; cross-resistance = minimum of twofold increase in resistance level): none of the 38 AMP-resistant lines displayed cross-resistance; also recorded: no cross-resistance
